# US9060519B2, “Insecticidally active pyridyl-thiazole and pyridyl-thiadiazole derivatives” (Syngenta Participations AG, priority 2011, dated 2015)
# Tested on: Plutella xylostella (diamond back moth)
# Test: Plutella xylostella (larvicide, feeding/residual contact activity, preventive)
# Assay type: in vivo
# Conditions: 200 ppm; artificial diet in MTP, L2 larvae; larval mortality, antifeedant, growth regulation after 5 days
# Procedure: Plutella xylostella (Diamond Back Moth) (Larvicide, Feeding/Residual Contact Activity, Preventive) 24-well microtiter plate (MTP) with artificial diet was treated with test solutions by pipetting. After drying, the MTP's were infested with larvae (L2)(10-15 per well). After an incubation period of 5 days, samples were checked for larval mortality, antifeedant and growth regulation.
row,SMILES,activity
1,C/C(=N\Oc1ccc(C#N)cn1)c1sc(-c2cccnc2)nc1C [Compound 1.012],over 80%

# Tested on: Myzus persicae (green peach aphid)
# Test: Activity against Myzus persicae (mixed population, feeding/residual contact activity, preventive)
# Assay type: in vivo
# Conditions: foliar, 144 h, sunflower leaf discs sprayed, aphids of mixed ages, mortality after 6 days
# Procedure: Activity against Myzus persicae (Green Peach Aphid)
# (Mixed Population, Feeding/Residual Contact Activity, Preventive)
# Sunflower leaf discs were placed on agar in a 24-well microtiter plate and sprayed with test solutions. After drying, the leaf discs were infested with an aphid population of mixed ages. After an incubation period of 6 days, samples were checked for mortality.
row,SMILES,pest or weed control at 200 ppm
1,C/C(=N\Oc1nccc(C)n1)c1sc(-c2cccnc2)nc1C [Compound 1.029],> 80%
2,C/C(=N\Oc1nc(C)cc(C)n1)c1sc(-c2cccnc2)nc1C [Compound 1.010],> 80%
3,CC/C(=N\Oc1ncccn1)c1sc(-c2cccnc2)nc1Cl [Compound 1.048],> 80%
4,"C/C(=N\Oc1ncccn1)c1cnc(-c2cccnc2)s1 [Compound 1.041, 1-[2-(3-pyridyl)thiazol-5-yl]-N-pyrimidin-2-yloxy-ethanimine]",> 80%
5,"COc1cc(OC)nc(O/N=C(\C)c2sc(-c3cccnc3)nc2Cl)n1 [Compound 1.058, 1-[4-chloro-2-(3-pyridyl)thiazol-5-yl]-N-(4,6-dimethoxypyrimidin-2-yl)oxy-ethanimine]",> 80%
6,C/C(=N\Oc1ncccc1SC(C)C)c1sc(-c2cccnc2)nc1C [Compound 1.056],> 80%
7,COCc1cc(C)nc(O/N=C(\C)c2sc(-c3cccnc3)nc2C)n1 [Compound 1.032],> 80%
8,COc1nc(OC)nc(O/N=C(\C)c2sc(-c3cccnc3)nc2C)n1 [Compound 1.060],> 80%
9,C/C(=N\Oc1nc(C)cc(C)n1)c1sc(-c2cccnc2)nc1Cl [Compound 1.057],> 80%
10,C/C(=N\Oc1ncccn1)c1sc(-c2cccnc2)nc1Cl [Compound 1.050],> 80%
11,CC/C(=N\Oc1nc(C)cc(C)n1)c1sc(-c2cccnc2)nc1Cl [Compound 1.047],> 80%
12,C/C(=N\Oc1cc(Cl)cnc1Cl)c1sc(-c2cccnc2)nc1C [Compound 1.008],> 80%
13,C/C(=N\Oc1ncccn1)c1sc(-c2cccnc2)nc1C [Compound 1.013],> 80%
14,COc1cc(OC)nc(O/N=C(\C)c2sc(-c3cccnc3)nc2C)n1 [Compound 1.009],> 80%
15,CC/C(=N\Oc1nc(OC)cc(OC)n1)c1sc(-c2cccnc2)nc1Cl [Compound 1.049],> 80%
16,COc1cnc(O/N=C(\C)c2sc(-c3cccnc3)nc2C)nc1 [Compound 1.014],> 80%

# Tested on: not given
# Test: not given
# Conditions: not given
row,melting point,SMILES
1,165 to 166 °C,C/C(=N\Oc1ncc(C(F)(F)F)cn1)c1sc(-c2cccnc2)nc1C [Compound 1.015]
2,179 to 181 °C,C/C(=N\Oc1ccc(C)nn1)c1sc(-c2cccnc2)nc1C [Compound 1.004]
3,169 to 171 °C,COc1ccc(Cl)c(-c2ccc(O/N=C(\C)c3sc(-c4cccnc4)nc3C)nn2)c1 [Compound 1.003]
4,174 to 176 °C,C/C(=N\Oc1ncc([N+](=O)[O-])cn1)c1sc(-c2cccnc2)nc1C [Compound 1.018]
5,126 to 128 °C,C/C(=N\Oc1ncccc1Cl)c1sc(-c2cccnc2)nc1C [Compound 1.007]
6,200 to 202 °C,C/C(=N\Oc1ccc2nnc(C)n2n1)c1sc(-c2cccnc2)nc1C [Compound 1.001]
7,53 to 55 °C,Cc1cc(C)nc(O/N=C(/c2sc(-c3cccnc3)nc2Cl)C2CC2)n1 [Compound 1.045]
8,149 to 151 °C,CSc1cc(F)cnc1O/N=C(\C)c1sc(-c2cccnc2)nc1C [Compound 1.055]
9,167 to 169 °C,COc1ccc(O/N=C(\C)c2sc(-c3cccnc3)nc2C)nn1 [Compound 1.005]
10,109 to 111 °C,COc1cc(OC)nc(O/N=C(/c2sc(-c3cccnc3)nc2Cl)C(F)(F)F)n1 [Compound 1.043]
11,152 to 154 °C,C#CCOc1ccc(O/N=C(\C)c2sc(-c3cccnc3)nc2C)nn1 [Compound 1.002]
12,127 to 130 °C,Clc1nc(-c2cccnc2)sc1/C(=N/Oc1ncccn1)C1CC1 [Compound 1.044]
